The text below walks through data of the RepoRT retention time repository (doi:10.1038/s41586-021-03707-9).

The nature of this data set: RP, Waters ACQUITY UPLC HSS C18, 100 × 2.1 mm, 1.7 µm, 40 °C, 0.35 mL/min, estimated dead time 0.63 min; A: water + 0.1% formic acid; B: methanol + 0.1% formic acid; gradient (min/%B) 0/0.5 4/70 4.5/98 5.4/98. The following applies: stereoisomer not certain.
Consider `C[N+](C)(C)CCOP(=O)([O-])OCC(O)CO` (stereo unspecified), for which the LC retention time was 0.764 min.

For the molecule `CC(C)C(O)(CC(=O)O)C(=O)O` (stereo unspecified), the LC retention time was 3.35 min.

Turning to `CC(=O)Oc1cc(C)c(OC(C)=O)c2ccccc12`, the LC retention time was 5.35 min.

For `CCOC(=O)CCC(=O)OCC`, the LC retention time is 4.61 min.

With `O=C(O)C=Cc1c[nH]c2ccccc12`, the LC retention time was 4.59 min.

As to `COC(=O)C1=C(C)NC(C)=C(C(=O)OCCN(C)Cc2ccccc2)C1c1cccc([N+](=O)[O-])c1` (stereo unspecified), the LC retention time is 4.6 min.

For the molecule `Nc1ccccc1O`, the LC retention time was 1.42 min.

As to `O=C(O)CC(O)C(=O)O` (stereo unspecified), the LC retention time was 1.92 min.

Regarding `CN(C)CCCN1c2ccccc2CCc2ccccc21`, the LC retention time was 4.77 min.

For `Cc1occc(=O)c1O`, the LC retention time is 2.77 min.

For `O=Cc1ccc(O)c(O)c1`, the LC retention time is 2.91 min.

`CC(=O)NC(CC(=O)O)C(=O)O` (stereo unspecified): the LC retention time was 1.23 min.

Consider `O=C(O)c1ccccc1C(=O)O`, for which the LC retention time is 3.32 min.

Consider `O=C(O)C=Cc1cnc[nH]1`, for which the LC retention time was 1.16 min.

On to `CN(C)CCc1ccccc1`, for which the LC retention time is 2.61 min.

On to `O=C(O)c1cc(O)c(O)c(O)c1`, for which the LC retention time was 1.88 min.

Consider `Cn1cnc(=N)c2[nH]cnc21`, for which the LC retention time is 0.862 min.

Regarding `CN(C)CCOC(C)(c1ccccc1)c1ccccn1` (stereo unspecified), the LC retention time was 3.14 min.

On to `CC12CC3CC(C)(C1)CC(N)(C3)C2`, for which the LC retention time was 4.42 min.

Turning to `CCCCCCCCCC(=O)OC(CC(=O)[O-])C[N+](C)(C)C` (stereo unspecified), the LC retention time was 5.25 min.

For the molecule `CC12CCC3c4ccc(O)cc4CCC3C1CC(O)C2O` (stereo unspecified), the LC retention time was 4.61 min.

For the molecule `O=C(O)C=Cc1ccccc1`, the LC retention time is 4.92 min.

With `CC(CCC(=O)O)CC(=O)O` (stereo unspecified), the LC retention time was 3.46 min.

Regarding `CCCOC(=O)c1cc(O)c(O)c(O)c1`, the LC retention time is 4.3 min.

With `CC(=CC(=O)O)CC(=O)O`, the LC retention time was 3.07 min.

Take `NC(CSCC(=O)O)C(=O)O` (stereo unspecified): the LC retention time was 0.873 min.

As to `NCC(=O)CCC(=O)O`, the LC retention time is 0.768 min.

On to `O=C(O)CCCCCC(=O)O`, for which the LC retention time was 3.46 min.

In the case of `NCC(O)c1ccc(O)cc1` (stereo unspecified), the LC retention time is 0.904 min.

For the molecule `O=C(C=Cc1ccc(O)c(O)c1)OC1CC(O)(C(=O)O)CC(O)C1O` (stereo unspecified), the LC retention time was 3.03 min.

Consider `CC(C(=O)O)c1ccc(O)cc1` (stereo unspecified), for which the LC retention time is 3.84 min.

In the case of `Cn1c(=O)[nH]c2nc[nH]c2c1=O`, the LC retention time is 2.28 min.

On to `NC(CCOC(=O)CCC(=O)O)C(=O)O` (stereo unspecified), for which the LC retention time was 1.36 min.

On to `CCc1occc(=O)c1O`, for which the LC retention time was 3.63 min.

Consider `NCCc1ccc(O)c(O)c1`, for which the LC retention time is 1.35 min.

As to `Cn1cnc2c1c(=O)[nH]c(=O)n2C`, the LC retention time is 2.5 min.

Regarding `COC(=O)C1=C(C)NC(C)=C(C(=O)OC)C1c1ccccc1[N+](=O)[O-]`, the LC retention time is 5.28 min.

In the case of `Nc1ncnc2c1ncn2C1OC(CSCCC(N)C(=O)O)C(O)C1O` (stereo unspecified), the LC retention time was 1.71 min.

In the case of `CC(O)(CC(=O)O)CC(=O)O`, the LC retention time is 1.9 min.

`COc1ccccc1C=CC=O`: the LC retention time was 5.02 min.

Regarding `COc1ccc(CCN(C)CCCC(C#N)(c2ccc(OC)c(OC)c2)C(C)C)cc1OC` (stereo unspecified), the LC retention time is 4.54 min.

On to `O=C(O)CCCCC1SCC2NC(=O)NC21` (stereo unspecified), for which the LC retention time was 3.42 min.

On to `CCN(Cc1ccncc1)C(=O)C(CO)c1ccccc1` (stereo unspecified), for which the LC retention time is 3.36 min.

Take `CC12CCC(=O)C=C1CCC1C2C(O)CC2(C)C(C(=O)CO)CCC12` (stereo unspecified): the LC retention time was 5.31 min.

Turning to `CSc1ccc2c(c1)N(CCC1CCCCN1C)c1ccccc1S2` (stereo unspecified), the LC retention time is 5.19 min.

In the case of `CN1C(=O)CCC1c1cccnc1` (stereo unspecified), the LC retention time is 1.72 min.

Turning to `Oc1c[nH]c2ccccc12`, the LC retention time is 3.85 min.

Regarding `O=C(O)C=Cc1ccc(O)cc1`, the LC retention time was 3.76 min.

On to `NC(CCS)C(=O)O` (stereo unspecified), for which the LC retention time was 0.907 min.

`O=C(O)C(O)C(O)C(O)C(=O)CO` (stereo unspecified): the LC retention time was 0.808 min.

As for `CCC1CCC(=O)O1` (stereo unspecified), the LC retention time was 3.33 min.

As to `O=C(O)c1c[nH]c(=O)[nH]c1=O`, the LC retention time was 1.51 min.

For `O=C(O)C(O)Cc1ccccc1` (stereo unspecified), the LC retention time was 3.7 min.

Regarding `C[N+](C)(C)CCOP(=O)([O-])OP(=O)(O)OCC1OC(n2ccc(N)nc2=O)C(O)C1O` (stereo unspecified), the LC retention time is 0.822 min.

Consider `Nc1ccc(O)c(C(=O)O)c1`, for which the LC retention time was 1.54 min.

As to `C=Cc1ccc(O)cc1`, the LC retention time is 4.46 min.

With `NC(=O)c1ccc[n+](C2OC(COP(=O)([O-])O)C(O)C2O)c1` (stereo unspecified), the LC retention time was 0.907 min.

Consider `O=C(O)CNC(=O)c1ccccc1`, for which the LC retention time is 3.23 min.

`Cc1cc2nc3[nH]c(=O)[nH]c(=O)c3nc2cc1C`: the LC retention time is 4.5 min.

Turning to `O=C(O)Cc1ccc(O)cc1`, the LC retention time was 3.23 min.

`O=C(O)C#Cc1ccccc1`: the LC retention time was 4.39 min.

For the molecule `NC(CCC(=O)O)C(=O)O` (stereo unspecified), the LC retention time is 0.764 min.

In the case of `Nc1ccn(C2CC(O)C(COP(=O)(O)O)O2)c(=O)n1` (stereo unspecified), the LC retention time is 1.1 min.

On to `CCC1OC(=O)C(C)C(OC2CC(C)(OC)C(O)C(C)O2)C(C)C(OC2OC(C)CC(N(C)C)C2O)C(C)(O)CC(C)C(=O)C(C)C(O)C1(C)O` (stereo unspecified), for which the LC retention time is 4.82 min.

Regarding `NC(CS(=O)O)C(=O)O` (stereo unspecified), the LC retention time was 0.768 min.

In the case of `O=C(O)CCC(=O)O`, the LC retention time was 1.73 min.

As to `CN(C)CCC=C1c2ccccc2CCc2ccccc21`, the LC retention time was 4.85 min.

On to `CCC1C(=O)OCC1Cc1cncn1C` (stereo unspecified), for which the LC retention time was 2.04 min.

Take `O=CNCC(=O)O`: the LC retention time is 0.919 min.

For the molecule `O=S(=O)(O)c1ccc(O)cc1`, the LC retention time is 1.02 min.

Regarding `CCCC(NC(C)C(=O)N1C(C(=O)O)CC2CCCCC21)C(=O)OCC` (stereo unspecified), the LC retention time was 4.66 min.

For `CN(C)C(=N)N=C(N)N`, the LC retention time is 0.844 min.

`CC(C)CC(=O)NCC(=O)O`: the LC retention time is 3.07 min.

For the molecule `O=C(O)CCCC(O)C(=O)O` (stereo unspecified), the LC retention time was 1.89 min.

As for `CC(=O)CC(=O)CCC(=O)O`, the LC retention time is 3.3 min.

In the case of `OCC(O)C(O)C(OC1OC(CO)C(O)C(O)C1O)C(O)CO` (stereo unspecified), the LC retention time was 4.47 min.

Turning to `O=c1[nH]cnc2nc[nH]c12`, the LC retention time is 1.38 min.

In the case of `NC(=O)c1ncn(C2OC(COP(=O)(O)O)C(O)C2O)c1N` (stereo unspecified), the LC retention time was 1.11 min.

With `COc1ccc2nc(S(=O)Cc3ncc(C)c(OC)c3C)[nH]c2c1` (stereo unspecified), the LC retention time was 4.42 min.

In the case of `OCC1OC(OC2C(CO)OC(O)C(O)C2O)C(O)C(O)C1O` (stereo unspecified), the LC retention time was 0.801 min.

Take `O=C(O)CCCCC(=O)O`: the LC retention time was 2.83 min.

In the case of `O=c1[nH]c(=O)c2ncn(C3OC(COP(=O)(O)O)C(O)C3O)c2[nH]1` (stereo unspecified), the LC retention time was 1.41 min.

For `O=C(O)CCCCCCCCC(=O)O`, the LC retention time is 4.96 min.

For the molecule `OC(CCN1CCCCC1)(c1ccccc1)C1CCCCC1` (stereo unspecified), the LC retention time is 4.77 min.

Consider `O=c1cccc[nH]1`, for which the LC retention time is 1.94 min.

On to `Nc1nc2c(ncn2CCC(CO)CO)c(=O)[nH]1`, for which the LC retention time is 1.88 min.

Turning to `Cn1c(=O)c2c(ncn2C)n(C)c1=O`, the LC retention time is 3.23 min.

For the molecule `Cn1c(=O)[nH]c(=O)c2[nH]cnc21`, the LC retention time is 2.17 min.

As for `CN(C)CCOC(c1ccccc1)c1ccccc1`, the LC retention time is 4.37 min.

Consider `NC1CCSC1=O` (stereo unspecified), for which the LC retention time was 0.873 min.

`CC(CC(=O)O)CC(=O)O`: the LC retention time is 3.02 min.

Take `O=C(O)C1OC(Oc2c[nH]c3ccccc23)C(O)C(O)C1O` (stereo unspecified): the LC retention time was 2.98 min.

Turning to `CNC(CCC(=O)O)C(=O)O` (stereo unspecified), the LC retention time is 0.817 min.

On to `CCC(=O)NCC(=O)O`, for which the LC retention time was 1.7 min.

Turning to `Nc1cccc(C(=O)O)c1O`, the LC retention time is 1.54 min.

`NC(=O)NC(NC(N)=O)C(=O)O`: the LC retention time was 0.777 min.

In the case of `NCC(O)c1ccc(O)c(O)c1` (stereo unspecified), the LC retention time is 0.806 min.

Turning to `CN1CC(=O)NC1=O`, the LC retention time was 1.62 min.

Turning to `CC1OC(n2cnc3c(N)ncnc32)C(O)C1O` (stereo unspecified), the LC retention time was 2.25 min.

Take `CCC(=O)OC(CC(=O)[O-])C[N+](C)(C)C` (stereo unspecified): the LC retention time is 1.82 min.

For `COc1ccc(-c2oc3cc(O)ccc3c(=O)c2O)cc1O`, the LC retention time is 3.62 min.

With `CNCCC(Oc1ccccc1C)c1ccccc1` (stereo unspecified), the LC retention time was 4.72 min.

Regarding `CNCC(O)c1ccc(O)c(O)c1` (stereo unspecified), the LC retention time was 0.911 min.

For `O=C(O)CCCCCCCC(=O)O`, the LC retention time is 4.56 min.

In the case of `Cn1c(=O)[nH]c2[nH]c(=O)[nH]c2c1=O`, the LC retention time was 2.1 min.

With `CC(=O)OCC(=O)C1(O)CCC2C3CCC4=CC(=O)CCC4(C)C3C(O)CC21C` (stereo unspecified), the LC retention time was 5.32 min.

Take `O=C(O)C=C(CC(=O)O)C(=O)O`: the LC retention time was 1.84 min.

`NC(CCC(=O)NC(CS)C(=O)NCC(=O)O)C(=O)O` (stereo unspecified): the LC retention time is 3.37 min.

On to `O=C1CCNC(=O)N1`, for which the LC retention time was 1.16 min.

As to `CCOC(=O)c1cncn1C(C)c1ccccc1` (stereo unspecified), the LC retention time is 5.14 min.

For `CC(=O)NC(CCC(=O)O)C(=O)O` (stereo unspecified), the LC retention time is 1.63 min.

With `O=C1Cc2ccccc2N1`, the LC retention time was 3.76 min.

As for `O=P(O)(O)OCC1OC(O)C(O)C(O)C1O` (stereo unspecified), the LC retention time is 0.783 min.

For the molecule `NC(CS(=O)(=O)O)C(=O)O` (stereo unspecified), the LC retention time was 0.773 min.

On to `CC(=O)OCC[N+](C)(C)C`, for which the LC retention time was 0.907 min.

In the case of `CC(C)NCC(O)COc1cccc2ccccc12` (stereo unspecified), the LC retention time was 4.33 min.
